From PubChem BioAssay AID248 (DTP/NCI, 2004)
Several values for one entry are separate records, joined by “and”; a condition that tells them apart may be missing. Identical values can stand only once. Inconclusive results and toxic doses are left out. Rule as the data show it: active = T/C of 150% or more; inactive = T/C below 125%.

Tested on: L1210 leukemia ip in BDF1 mice, survival T/C
Experiment: NCI In Vivo Anticancer Drug Screen. Data for tumor model L1210 Leukemia (intraperitoneal) in B6D2F1 (BDF1) mice
Conditions: endpoint: mean survival time, higher = longer survival
How it was run: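 Each compound was tested against a transplantable tumor grown in mice. The endpoint was survival, with treated animals benchmarked against vehicle controls as a simple ratio.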

[1] = dose: 75.0 mg/kg/injection, schedule: Q01DX001 (ip), vehicle: other
[2] = dose: 150.0 mg/kg/injection, schedule: Q01DX001 (ip), vehicle: other
[3] = dose: 300.0 mg/kg/injection, schedule: Q01DX001 (ip), vehicle: other
[4] = dose: 100.0 mg/kg/injection, schedule: Q04DX003 (ip), vehicle: saline with Tween-80
[5] = dose: 100.0 mg/kg/injection, schedule: Q01DX009 (ip), vehicle: Klucel (hydroxypropylcellulose) (HPC)
[6] = dose: 100.0 mg/kg/injection, schedule: Q04DX003 (ip), vehicle: Klucel (hydroxypropylcellulose) (HPC)
[7] = dose: 200.0 mg/kg/injection, schedule: Q01DX009 (ip), vehicle: Klucel (hydroxypropylcellulose) (HPC)
[8] = dose: 200.0 mg/kg/injection, schedule: Q04DX003 (ip), vehicle: Klucel (hydroxypropylcellulose) (HPC)
[9] = dose: 400.0 mg/kg/injection, schedule: Q01DX009 (ip), vehicle: Klucel (hydroxypropylcellulose) (HPC)
[10] = dose: 100.0 mg/kg/injection, schedule: Q01DX001 (ip), vehicle: Klucel (hydroxypropylcellulose) (HPC)
[11] = dose: 100.0 mg/kg/injection, schedule: Q01DX001 (ip), vehicle: carboxymethylcellulose (CMC)

Measured: T/C

C/C=C/CC1(CCC(C)C)C(=O)NC(=O)NC1=O
inactive: dose: 75.0 mg/kg/injection, schedule: Q01DX001 (ip), vehicle: acetone 95 % of control | [1] 101 % of control | dose: 150.0 mg/kg/injection, schedule: Q01DX001 (ip), vehicle: acetone 101 % of control | [2] 101 % of control | [3] 105 % of control

CC(C)(C)CC(C)(C)c1ccc(Oc2ccc([N+](=O)[O-])cc2S(=O)(=O)O)cc1
inactive: [4] 97 % of control

CCOC(=O)c1[nH]c(C)c(C(=O)OCC)c1-c1ccccc1
inactive: dose: 100.0 mg/kg/injection, schedule: Q01DX001 (ip), vehicle: saline with Tween-80 98 % of control | dose: 200.0 mg/kg/injection, schedule: Q01DX001 (ip), vehicle: saline with Tween-80 106 % of control | dose: 400.0 mg/kg/injection, schedule: Q01DX001 (ip), vehicle: saline with Tween-80 100 % of control

C=C(C)COP(=O)(OCC(=C)C)OCC(=C)C
inactive: [5] 97 % of control | [6] 97 % of control | [7] 100 % of control | [8] 100 % of control | [9] 103 % of control | dose: 400.0 mg/kg/injection, schedule: Q04DX003 (ip), vehicle: Klucel (hydroxypropylcellulose) (HPC) 92 % of control

NC(N)=NCCN1C(c2ccccc2)C1c1ccccc1 (stereo not drawn)
inactive: dose: 12.5 mg/kg/injection, schedule: Q04DX002 (ip), vehicle: saline with Tween-80 107 % of control | dose: 25.0 mg/kg/injection, schedule: Q04DX002 (ip), vehicle: saline with Tween-80 103 % of control | dose: 50.0 mg/kg/injection, schedule: Q04DX002 (ip), vehicle: saline with Tween-80 100 % of control

COc1cc2c(cc1OC)C13CCN4CC5=CCOC6CC(=O)N2C1C6C5CC43 (stereo not drawn) (tested in a mixture with another compound)
inactive: dose: 12.0 mg/kg/injection, schedule: Q01DX001 (ip), vehicle: Klucel (hydroxypropylcellulose) (HPC) 89 % of control | dose: 12.0 mg/kg/injection, schedule: Q01DX009 (ip), vehicle: Klucel (hydroxypropylcellulose) (HPC) 97 % of control | dose: 12.5 mg/kg/injection, schedule: Q01DX001 (ip), vehicle: Klucel (hydroxypropylcellulose) (HPC) 101 % of control | dose: 12.5 mg/kg/injection, schedule: Q01DX009 (ip), vehicle: saline 97 % of control | dose: 25.0 mg/kg/injection, schedule: Q01DX001 (ip), vehicle: Klucel (hydroxypropylcellulose) (HPC) 95 % of control and 93 % of control | dose: 25.0 mg/kg/injection, schedule: Q01DX001 (ip), vehicle: saline with Tween-80 89 % of control | dose: 25.0 mg/kg/injection, schedule: Q01DX009 (ip), vehicle: Klucel (hydroxypropylcellulose) (HPC) 96 % of control | dose: 25.0 mg/kg/injection, schedule: Q01DX009 (ip), vehicle: saline 97 % of control | dose: 25.0 mg/kg/injection, schedule: Q04DX003 (ip), vehicle: Klucel (hydroxypropylcellulose) (HPC) 104 % of control | dose: 25.0 mg/kg/injection, schedule: Q04DX003 (ip), vehicle: saline with Tween-80 94 % of control | dose: 25.0 mg/kg/injection, schedule: Q04DX003 (ip), vehicle: saline 111 % of control | dose: 50.0 mg/kg/injection, schedule: Q01DX001 (ip), vehicle: Klucel (hydroxypropylcellulose) (HPC) 100 % of control and 102 % of control | dose: 50.0 mg/kg/injection, schedule: Q01DX001 (ip), vehicle: saline with Tween-80 96 % of control | dose: 50.0 mg/kg/injection, schedule: Q01DX009 (ip), vehicle: Klucel (hydroxypropylcellulose) (HPC) 91 % of control | dose: 50.0 mg/kg/injection, schedule: Q01DX009 (ip), vehicle: saline 106 % of control | dose: 50.0 mg/kg/injection, schedule: Q04DX003 (ip), vehicle: Klucel (hydroxypropylcellulose) (HPC) 107 % of control | dose: 50.0 mg/kg/injection, schedule: Q04DX003 (ip), vehicle: saline with Tween-80 100 % of control | dose: 50.0 mg/kg/injection, schedule: Q04DX003 (ip), vehicle: saline 107 % of control | [1] 95 % of control | dose: 75.0 mg/kg/injection, schedule: Q01DX001 (ip), vehicle: saline 98 % of control and 94 % of control and 107 % of control | dose: 75.0 mg/kg/injection, schedule: Q01DX009 (ip), vehicle: saline 107 % of control | [10] 103 % of control | [6] 95 % of control | [4] 89 % of control | [2] 86 % of control | dose: 150.0 mg/kg/injection, schedule: Q01DX001 (ip), vehicle: saline 98 % of control | [8] 90 % of control | [3] 89 % of control

O=C(Nc1ccccc1)c1cc(N2CCOCC2)ccn1
inactive: dose: 100.0 mg/kg/injection, schedule: Q01DX001 (ip), vehicle: saline 97 % of control | dose: 200.0 mg/kg/injection, schedule: Q01DX001 (ip), vehicle: saline 95 % of control | dose: 400.0 mg/kg/injection, schedule: Q01DX001 (ip), vehicle: saline 91 % of control

CC(=O)Nc1ccc(/C=N/Nc2ccccc2)cc1
inactive: [5] 101 % of control | [7] 103 % of control | [9] 101 % of control

COC1OC(COC(=O)c2ccc([N+](=O)[O-])cc2)C(OC(=O)c2ccc([N+](=O)[O-])cc2)C1OCc1ccccc1 (stereo not drawn)
inactive: [1] 86 % of control | [2] 86 % of control | [3] 86 % of control and 89 % of control

O=C1OC(c2ccc(F)c3ccccc23)C2CCCCC12 (stereo not drawn)
inactive: [10] 102 % of control | dose: 200.0 mg/kg/injection, schedule: Q01DX001 (ip), vehicle: Klucel (hydroxypropylcellulose) (HPC) 102 % of control | dose: 400.0 mg/kg/injection, schedule: Q01DX001 (ip), vehicle: Klucel (hydroxypropylcellulose) (HPC) 96 % of control

CCCOC(=O)c1ccc(OC(=O)NC)cc1
inactive: [11] 92 % of control | dose: 100.0 mg/kg/injection, schedule: Q01DX009 (ip), vehicle: carboxymethylcellulose (CMC) 101 % of control and 106 % of control | dose: 100.0 mg/kg/injection, schedule: Q04DX002 (ip), vehicle: carboxymethylcellulose (CMC) 102 % of control and 112 % of control | dose: 100.0 mg/kg/injection, schedule: Q04DX003 (ip), vehicle: carboxymethylcellulose (CMC) 102 % of control | dose: 200.0 mg/kg/injection, schedule: Q01DX001 (ip), vehicle: carboxymethylcellulose (CMC) 102 % of control | dose: 200.0 mg/kg/injection, schedule: Q01DX009 (ip), vehicle: carboxymethylcellulose (CMC) 109 % of control and 88 % of control | dose: 200.0 mg/kg/injection, schedule: Q04DX002 (ip), vehicle: carboxymethylcellulose (CMC) 97 % of control and 102 % of control | dose: 200.0 mg/kg/injection, schedule: Q04DX003 (ip), vehicle: carboxymethylcellulose (CMC) 91 % of control | dose: 400.0 mg/kg/injection, schedule: Q01DX001 (ip), vehicle: carboxymethylcellulose (CMC) 96 % of control | dose: 400.0 mg/kg/injection, schedule: Q04DX002 (ip), vehicle: carboxymethylcellulose (CMC) 94 % of control and 102 % of control

O=P(N1CC1)(N1CC1)N(CCCCN(Cc1ccccc1)P(=O)(N1CC1)N1CC1)Cc1ccccc1
inactive: dose: 10.0 mg/kg/injection, schedule: Q01DX001 (ip), vehicle: carboxymethylcellulose (CMC) 104 % of control | dose: 20.0 mg/kg/injection, schedule: Q01DX001 (ip), vehicle: carboxymethylcellulose (CMC) 101 % of control | dose: 40.0 mg/kg/injection, schedule: Q01DX001 (ip), vehicle: carboxymethylcellulose (CMC) 104 % of control | dose: 80.0 mg/kg/injection, schedule: Q01DX001 (ip), vehicle: carboxymethylcellulose (CMC) 106 % of control | [11] 92 % of control
